# Measured values as given in patent US12370235B2, “Synthetic, non-natural antimicrobial peptides inspired by Staphylococcus auricularis delta toxin” (University of Saskatchewan, priority 2021, dated 2025).
# Read-outs that look alike come from different tables or passages of the source. Ends that are not written are not given here.
# Assays:
# [1] = test system: S. aureus / MRSA (ATCC MP-2 panel); format: cell-based, Staphylococcus aureus
# Method in brief: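 MIC by broth microdilution in cation-adjusted Mueller Hinton broth: cultures diluted to OD 6×10^−4 and exposed to 2-fold peptide dilution series, standing overnight at 37° C. MIC = lowest peptide concentration with no visible growth. Panel: one methicillin-sensitive S. aureus plus 7 MRSA strains of distinct SCCmec genotypes.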
# M. luteus ATCC 4698 = assay: MIC, broth dilution; format: cell-based, Micrococcus luteus
# Method in brief: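 MIC defined as the lowest peptide level giving no growth after overnight standing incubation at 37° C. Bacteria at OD 6×10^−4 in cation-adjusted MH broth met 2-fold serial peptide dilutions; peptide purity 95%.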
# [2] = test system: Candida lusitaniae AR 398; assay: MIC, YPD broth, CDC and FDA AR Candida isolate panel; format: cell-based; conditions: Table 9 top part: titrations from 1.56 to 100 μg/mL
# Method in brief: (§1)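 Using peptides at 95% purity, yeast suspensions adjusted to an optical density of […] received two-fold diluted peptide, were held static overnight at 37° C, and were compared against sterile-water controls.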
# [3] = test system: Candida duobushaemulonii AR 394; assay: as above; format: cell-based; conditions: Table 9 top part: titrations from 1.56 to 100 μg/mL
# Method in brief: as §1
# [4] = test system: Candida haemulonii AR 393; assay: as above; format: cell-based; conditions: Table 9 top part: titrations from 1.56 to 100 μg/mL
# Method in brief: as §1
# [5] = test system: Candida duobushaemulonii AR 392; assay: as above; format: cell-based; conditions: Table 9 top part: titrations from 1.56 to 100 μg/mL
# Method in brief: as §1
# Kodamae ohmeri AR 396 = assay: as above; format: cell-based; conditions: Table 9 top part: titrations from 1.56 to 100 μg/mL
# Method in brief: as §1
# [6] = test system: Candida duobushaemulonii AR 391; assay: as above; format: cell-based; conditions: Table 9 top part: titrations from 1.56 to 100 μg/mL
# Method in brief: as §1
# [7] = test system: Saccharomyces cerevisiae AR 399; assay: as above; format: cell-based; conditions: Table 9 top part: titrations from 1.56 to 100 μg/mL
# Method in brief: as §1
# [8] = test system: Saccharomyces cerevisiae AR 400; assay: as above; format: cell-based; conditions: Table 9 top part: titrations from 1.56 to 100 μg/mL
# Method in brief: as §1
# Candida krusei AR 397 = assay: as above; format: cell-based; conditions: Table 9 top part: titrations from 1.56 to 100 μg/mL
# Method in brief: as §1
# Klebsiella pneumoniae = assay: SYTOX Green membrane integrity assay; format: cell-based; conditions: 25 μg/mL; resistant strain
# MRSA ATCC 33592 = assay: Three-dimensional NHEK skin model of MRSA infection and treatment; format: cell-based, Staphylococcus aureus
# Experimental: To begin to assess the potential utility of STIP3-29 as a topical antimicrobial agent, the ability of the peptide to control MRSA infections of three-dimensional epidermal skin model prepared from normal, human-derived epidermal keratinocytes (NHEK) in vitro was evaluated. The multilayered and highly differentiated tissue was colonized with MRSA 33952 through a 4 h exposure to 5×10^5 CFU before removing non-adherent cells. It was observed that ˜7×10^3 CFU (−1%) of the MRSA cells colonized the tissues, and that the population expanded by 4-log units in a 16 h period (FIG. 6A). […] Amidation of the C-terminus is correlated with an increase in red blood cell lysis, observed by comparing of STIP3-1 to STIP3-28 and STIP3-3 to STIP3-29 whereas the inclusion of D-amino acids reduced the hemolytic activity.
# Three-dimensional tissue infection and treatment. 3D EpiDerm skin tissues (MatTek EPI-200-AFAB; antifungal & antibiotic-free; 9 mm) contained within a plastic insert lined with a permeable 0.4 μm membrane were transferred to a 12 well plate containing dye- and antibiotic assay medium (600 μl per well). […] The number of colonies on each plated were counted and an average CFU/mL was determined for treated and untreated samples. […]
substance,measurement,setting,value
"TVGGLVKWILKTVKKFA-NH2 [STIP3-29, TVGGLVKWILKTVKKFA-NH2]","MIC, MRSA",[1],6.25 µg/mL
same,"MIC, MRSA",[1]; molar,3.3 µM
same,fold improvement of activity (MIC),"[1]; relative to STIP3-1, S. aureus / MRSA",16 fold
same,MIC M. luteus,M. luteus ATCC 4698,1.56 µg/mL
same,MIC M. luteus,M. luteus ATCC 4698; molar,0.85 µM
same,fold improvement of activity (MIC),"M. luteus ATCC 4698; relative to STIP3-1, M. luteus",8 fold
same,MIC (μg/mL) Candida lusitaniae AR 398,[2],25 µg/mL
same,MIC (μg/mL) Candida duobushaemulonii AR 394,[3],100 µg/mL
same,MIC (μg/mL) Candida haemulonii AR 393,[4],200 µg/mL
same,MIC (μg/mL) Candida duobushaemulonii AR 392,[5],50 µg/mL
same,MIC (μg/mL) Kodamae ohmeri AR 396,Kodamae ohmeri AR 396,50 µg/mL
same,MIC (μg/mL) Candida duobushaemulonii AR 391,[6],25 µg/mL
same,MIC (μg/mL) Saccharomyces cerevisiae AR 399,[7],50 µg/mL
same,MIC (μg/mL) Saccharomyces cerevisiae AR 400,[8],25 µg/mL
same,MIC (μg/mL) Candida krusei AR 397,Candida krusei AR 397,50 µg/mL
same,SYTOX entry,Klebsiella pneumoniae,SYTOX was slow to enter
same,control of MRSA population on 3D epidermal tissue,"MRSA ATCC 33592; 25 μg/ml after colonization, 16 h",prevented the expansion of the MRSA population
same,average bacterial density,"MRSA ATCC 33592; tissues treated with 25 μg/mL (n=6), infected at 7×10^3 CFU/mL, untreated 9×10^7 CFU/mL",6×10^3 CFU/mL
